Measurements from patent US6472416B1, “Sulfonylphenylpyrazole compounds useful as COX-2 inhibitors” (Abbott Laboratories, priority 1999, dated 2002).

Tests used:
[1] = target: T1, recombinant human Cox-1 (r-hu Cox-1, PGHS-1) (Homo sapiens, UniProt P23219); assay: Recombinant human PGHS-1 (r-hu Cox-1) enzyme assay, PGE2 by EIA; type: biochemical; settings: at 100 μM; read-out: r-hu COX1 percent inhibition
T1 construct: made in house; host or cells: baculovirus/Sf9 insect cells (microsomes)
Protocol: (§1) To compare the mean responses of the treatment groups, analysis of variance was applied. Percent inhibition values were determined by comparing the individual treatment mean values to the mean of the control group. Linear regression was used to estimate IC50's/ED50's in appropriate assays.
(§2) EIA reagents for prostaglandin determination were purchased from Perseptive Diagnostics, (Cambridge, Mass.). Prostaglandin E2 (PGE2) levels in lavage fluids were determined after the samples were dried under nitrogen and reconstituted with assay buffer. PGE2 levels in enzyme assays or cell culture media were measured against standards prepared in the same milieu. The immunoassays were conducted as recommended by the manufacturer. The EIA was conducted in 96 well microtiter plates (Nunc Roskilde, Denmark) and optical density was measured using a microplate reader (Vmax, Molecular Devices Corp., Menlo Park, Calif.).
(§3) Inhibition of prostaglandin biosynthesis in vitro was evaluated using recombinant human Cox-1 (r-hu Cox-1) and Cox-2 (r-hu Cox-2) enzyme assays. […] The reaction was allowed to run for 2.5 minutes at room temperature prior to quenching with HCl and neutralization with NaOH. PGE2 production in the presence and absence of the drug was determined by EIA analysis. The EIA was conducted in 96 well microtiter plates (Nunc Roskilde, Denmark) and optical density was measured using a microplate reader (Vmax, Molecular Devices Corp., Menlo Park, Calif.). EIA reagent for prostaglandin determination were purchased from Perseptive Diagnostics (Cambridge, Mass.). PGE2 levels were measured against standards prepared in the same milieu. The immunoassays were conducted as recommended by the manufacturer.
(§4) The compounds are designated by the Example Number. […] Values for Cox-2 inhibition that are parenthetical indicate IC50 values.

[2] = tested on: prostaglandin biosynthesis in vivo; assay: Rat Carrageenan Pleural Inflammation (CIP) Model; settings: 10 mg/kg oral, 30 minutes prior to intrapleural carrageenan, lavage four hours later
Protocol: For oral administration, test compounds were suspended on the day of use in 100% polyethyleneglycol (PEG 400) with a motorized homogenizer equipped with a Teflon-coated pestle (TRI-R Instrument, Jamaica, N.Y.).
as §1, §2
Pleural inflammation was induced in male adrenalectomized Sprague-Dawley rats following the method of Vinegar et al., Fed. Proc. 1976, 35, 2447-2456. […] Eicosanoids were determined by EIA as described above. […]

[3] = target: T2, recombinant human Cox-2 (r-hu Cox-2, PGHS-2) (Homo sapiens, UniProt P35354); assay: Recombinant human PGHS-2 (r-hu Cox-2) enzyme assay, PGE2 by EIA; type: biochemical; settings: read-out: r-hu COX2 percent inhibition
T2 construct: made in house; host or cells: baculovirus/Sf9 insect cells (microsomes)
T2 sequence (P35354 18-604): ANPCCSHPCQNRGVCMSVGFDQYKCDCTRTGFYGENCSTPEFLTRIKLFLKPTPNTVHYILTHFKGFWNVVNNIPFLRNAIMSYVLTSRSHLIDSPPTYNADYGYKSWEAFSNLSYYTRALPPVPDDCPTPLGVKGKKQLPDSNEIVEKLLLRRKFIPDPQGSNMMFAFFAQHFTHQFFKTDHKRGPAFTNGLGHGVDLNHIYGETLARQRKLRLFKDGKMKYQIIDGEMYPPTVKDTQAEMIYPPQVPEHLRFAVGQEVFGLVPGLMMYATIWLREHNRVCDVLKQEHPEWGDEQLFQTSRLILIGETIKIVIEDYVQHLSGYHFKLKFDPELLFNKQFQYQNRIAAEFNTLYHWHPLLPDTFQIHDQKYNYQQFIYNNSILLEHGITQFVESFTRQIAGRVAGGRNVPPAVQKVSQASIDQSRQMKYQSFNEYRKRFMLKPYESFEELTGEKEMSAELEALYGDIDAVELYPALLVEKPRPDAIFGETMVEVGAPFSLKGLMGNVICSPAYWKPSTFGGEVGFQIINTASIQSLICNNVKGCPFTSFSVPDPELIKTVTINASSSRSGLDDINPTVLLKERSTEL
Protocol: as §1, §2, §3, §4

[4] = tested on: IL-1β induced PGE2 production in human amnionic WISH cells; assay: IL-1β Induced PGE2 Production in WISH Cells; type: cell-based; settings: Homo sapiens, IL-1β 18 hour, read-out: WISH percent inhibition
Protocol: as §2
Human amnionic WISH cells were grown to 80% confluence in 48 well plates. Following removal of the growth medium and two washings with Gey's Balanced Salt Solution, 5 ng IL-1β/ml (UBI, Lake Placid, N.Y.) was added to the cells with or without test compound in DMSO (0.01% v/v) in Neuman-Tytell Serumless Medium (GIBCO, Grand Island, N.Y.). Following an 18 hour incubation to allow for the maximal induction of PGHS-2, the conditioned medium was removed and assayed for PGE2 content by EIA anylysis as described above.
WISH cell values indicate percent inhibition at the particular dose level.

T1 sequence (P23219 24-599): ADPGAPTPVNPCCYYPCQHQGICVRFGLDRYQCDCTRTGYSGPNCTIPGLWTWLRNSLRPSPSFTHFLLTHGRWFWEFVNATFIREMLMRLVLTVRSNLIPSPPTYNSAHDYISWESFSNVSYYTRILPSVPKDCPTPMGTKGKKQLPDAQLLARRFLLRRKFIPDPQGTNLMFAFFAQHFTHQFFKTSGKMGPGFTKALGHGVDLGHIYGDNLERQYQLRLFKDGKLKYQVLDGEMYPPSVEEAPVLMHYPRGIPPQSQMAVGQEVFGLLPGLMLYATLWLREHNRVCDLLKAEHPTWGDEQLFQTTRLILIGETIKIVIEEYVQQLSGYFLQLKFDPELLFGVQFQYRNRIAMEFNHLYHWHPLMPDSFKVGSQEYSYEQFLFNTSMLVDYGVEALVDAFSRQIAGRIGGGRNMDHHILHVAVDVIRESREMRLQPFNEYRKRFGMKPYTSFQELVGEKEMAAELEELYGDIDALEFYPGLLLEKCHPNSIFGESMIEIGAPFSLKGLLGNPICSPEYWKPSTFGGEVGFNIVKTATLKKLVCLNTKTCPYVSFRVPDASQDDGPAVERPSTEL

| inhibition at 100 µM [1] | melting point | inhibition at 10 µM ([3]; at 10000 nM) | inhibition at 0.1 µM ([3]; at 100 nM) | SMILES | CIP Inh @ 10 mpk [2] | inhibition at 0.001 µM ([4]; at 1 (nM)) | inhibition at 10 pM ([4]; at 0.01 (nM)) | inhibition at 1 pM ([4]; at 0.001 (nM)) |
| --- | --- | --- | --- | --- | --- | --- | --- | --- |
| 27% | 181 to 182 °C | 43% |  | CCn1nc(OC2COCCC2=O)c(-c2ccc(F)cc2)c1-c1ccc(S(C)(=O)=O)cc1 (stereo not drawn) [Example 23, 3-[(1-Ethyl-4-(4-fluorophenyl)-5-(4-(methylsulphonyl)phenyl)-1H-pyrazol-3-yl)oxy]tetrahydro-4H-pyran-4-one] |  | 80% |  |  |
|  | 189 to 191 °C |  |  | CC(=O)n1nc(OCC(=O)C(C)(C)C)c(-c2ccccc2)c1-c1ccc(S(C)(=O)=O)cc1 [Example 32, 1-[(1-Acetyl-5-(4-(methylsulphonyl)phenyl)-4-phenyl-1H-pyrazol-3-yl)oxy]-3,3-dimethylbutan-2-one] |  |  | 47% |  |
|  | 158 to 161 °C |  |  | CCn1nc(OCC(=O)C(C)(C)C)c(-c2ccccc2)c1-c1ccc(S(C)(=O)=O)cc1 [Example 33, 1-[(1-Ethyl-5-(4-(methylsulphonyl)phenyl)-4-phenyl-1H-pyrazol-3-yl)oxy]-3,3-dimethylbutan-2-one] |  |  |  | 78% |

Continued, compound first:

| SMILES | inhibition at 100 µM [1] | melting point | inhibition at 10 µM ([3]; at 10000 nM) | inhibition at 0.1 µM ([3]; at 100 nM) | CIP Inh @ 10 mpk [2] | inhibition at 0.001 µM ([4]; at 1 (nM)) | inhibition at 10 pM ([4]; at 0.01 (nM)) | inhibition at 1 pM ([4]; at 0.001 (nM)) |
| --- | --- | --- | --- | --- | --- | --- | --- | --- |
| CS(=O)(=O)c1ccc(-c2c(-c3ccc(F)cc3)c(OCC(=O)c3ccccc3)nn2CC(=O)c2ccccc2)cc1 [Example 12, 2-[4-(4-Fluorophenyl)-5-(4-(methylsulphonyl)phenyl)-3-(2-oxo-2-phenylethoxy)-1H-pyrazol-1-yl]-1-phenylethan-1-one] | 0% | 151 to 152 °C |  |  | 38% |  |  |  |
| CS(=O)(=O)c1ccc(-c2c(-c3ccc(F)cc3)c(OCC(=O)c3ccc(F)cc3)nn2CC(=O)c2ccc(F)cc2)cc1 [Example 13, 2-[4-(4-Fluorophenyl)-5-(4-(methylsulphonyl)phenyl)-3-(2-oxo-2-(4-fluorophenyl)ethoxy)-1H-pyrazol-1-yl]-1-(4-fluorophenyl)ethan-1-one] | 17% | 194 to 196 °C |  | 90% | 22% |  |  |  |
